Experimental data as given in patent US9708307B2, “Heterocyclic acetamide compound” (ASTELLAS PHARMA INC., priority 2013, dated 2017).

target: T1, dopamine D1 receptor (Homo sapiens, UniProt P21728); experiment: Evaluation of positive allosteric modulating activity: leftward shift of dopamine dose-response curve (cAMP) in CHO cells stably expressing human dopamine D1 receptor; assay type: cell-based; conditions: extrapolated by linear function from dopamine EC50 at each test drug concentration
T1 construct: expressed in transfected cells
Method: The composition of a buffer used in Test Example 1 is as follows.
Buffer for assay=αMEM containing 1 μM IBMX.
Buffer for dilution=αMEM containing 1 μM IBMX and 0.8 mM ascorbic acid.
The positive allosteric modulating activity of the compound of the present invention was evaluated according to the ratio of the leftward shift in a dopamine dose-response curve.
The leftward shift means that a dose-response curve of dopamine, in which the logarithm of a dose is on the horizontal axis (X-axis) and a response (cAMP concentration in this test) is on the vertical axis (Y-axis), shifts in parallel in the negative direction of the X-axis by the administration of a positive allosteric modulator.
The coding sequences of a dopamine D1 receptor in a human (Accession No.: NM_000794.3) were amplified by PCR and subcloned into a pEF-BOS vector. The resulting construct was transfected to CHO (-dhrf) cells (ATCC No.: CRL-9096) using Lipofectamine 2000 (Invitrogen Inc.). The clones stably transfected were obtained by selection using 100 nM MTX. The obtained cell clones were maintained in αMEM containing 10% FBS, 1 mg/mL penicillin, and 1 U/streptomycin.
Dose-Response Curve of Dopamine Using test drug was drawn on the basis of the following experiments.
A buffer for assay of a test drug was serially diluted (concentrations 0.48 μM to 40 μM, 3-fold dilutions). The serially diluted solutions of the test drug were dispensed in each portion of 2.5 μL to black 384-well plates (Becton Dickinson, Inc.).
CHO cells stably expressing a dopamine D receptor of a human were seeded in each portion of 5 μL in each well at a density of 5000 cells/well, centrifuged in a centrifuge for a plate (05PR-22, Hitachi Co., Ltd., 800 rpm), and then allowed to stand for 10 minutes.
Serially diluted solutions of dopamine were prepared from a DMSO solution of dopamine (Sigma Co.) with a buffer for dilutions (concentrations 0.018 μM to 13.2 μM, 3-fold dilutions), and the serially diluted solutions of dopamine were dispensed in portions of 2.5 μL to each well of a plate.
The plate was stirred using a plate shaker (Sanko Junyaku (mx-5)) and then allowed to stand at room temperature for 20 minutes (final concentration: test drug 0 μM to 10 μM, dopamine 0 μM to 3.3 μM, 3-fold dilutions).
cAMP was quantified using a cAMP femto 2 kit (Sceti Medical Labo K. K.) by the method described in the materials appended in the kit. A kit reagent cAMP-d2 solution and a kit reagent Anti cAMP-Cryptate solution were added in each portion of 5 μL to each well of the above-described plate, and the reaction was stopped. After incubating the plate at room temperature for 1 hour, the fluorescent intensity was measured (an excitation wavelength of 320 nm and a fluorescent wavelength of 665 nm) using a plate reader (2103 Multilabel Reader (registered trademark EnVision), PerkinElmer, Inc.).
As a control group, a well without addition of dopamine was taken as 0% and a well with a dopamine final concentration of 3.3 μM was taken as 100%.
The dose-response curve of dopamine was drawn on the basis of the experiment carried out in the same manner as in (1) without the addition of a test drug.
In order to quantitatively compare the activity of the test drug, the activity was evaluated by EC50 2-fold potentiation.
In the present specification, “EC50 2-fold potentiation” is the test drug concentrations that enhanced the EC50 two-fold in the dose-response curve (2) of dopamine.
From the dose-response curve (1) of dopamine in the presence of the test drug at each concentration, the EC50 at the test drug concentration was obtained. From the correlation between the concentration of the test drug and the EC50, EC50 2-fold potentiation was calculated by extrapolation by a linear function (straight line).
Further, the EC50 value was calculated from the dose-response curves (1) and (2) of dopamine, using non-linear regression analysis. […]

T1 sequence (P21728 whole entry): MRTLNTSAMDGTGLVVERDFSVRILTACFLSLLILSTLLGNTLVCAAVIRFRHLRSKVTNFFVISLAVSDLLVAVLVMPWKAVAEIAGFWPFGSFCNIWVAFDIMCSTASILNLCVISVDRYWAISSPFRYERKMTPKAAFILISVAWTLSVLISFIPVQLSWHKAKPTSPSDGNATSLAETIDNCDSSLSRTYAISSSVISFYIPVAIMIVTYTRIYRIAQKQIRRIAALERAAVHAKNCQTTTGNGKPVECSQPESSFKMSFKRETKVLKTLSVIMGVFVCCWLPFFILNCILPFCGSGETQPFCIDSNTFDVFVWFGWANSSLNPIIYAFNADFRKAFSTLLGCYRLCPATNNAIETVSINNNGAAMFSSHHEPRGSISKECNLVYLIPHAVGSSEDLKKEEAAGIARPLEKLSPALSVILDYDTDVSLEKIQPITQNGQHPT

Data 1: EC50 2-fold potentiation (test drug concentration that enhanced the dopamine EC50 two-fold)	SMILES
0.46 µM	CN(Cc1nc2cc(C(F)(F)F)ccc2[nH]1)C(=O)Cn1c(=O)oc2ccc(Cl)cc21.Cl [Example 1, 2-(5-chloro-2-oxo-1,3-benzoxazol-3 (2H)-yl)-N-methyl-N-{[5-(trifluoromethyl)-1H-benzimidazol-2-yl]methyl}acetamide hydrochloride]
0.10 µM	CN(Cc1nc2cc(Cl)c(Cl)cc2n1CCO)C(=O)Cn1c(=O)oc2ccc(Cl)cc21.Cl [Example 7, 2-(5-chloro-2-oxo-1,3-benzoxazol-3 (2H)-yl)-N-{[5,6-dichloro-1-(2-hydroxyethyl)-1H-benzimidazol-2-yl]methyl}-N-methylacetamide hydrochloride]
1.0 µM	CN(Cc1nc2cc(Cl)ccc2[nH]1)C(=O)Cn1c(=O)oc2ccc(Cl)cc21.Cl [Example 12]
1.7 µM	CN(Cc1nc2cc(Cl)c(F)cc2[nH]1)C(=O)Cn1c(=O)oc2ccc(Cl)cc21.Cl [Example 14]
0.74 µM	COc1cc2[nH]c(CN(C)C(=O)Cn3c(=O)oc4ccc(Cl)cc43)nc2cc1Br.Cl [Example 15]
0.62 µM	CN(Cc1nc2c(C(F)(F)F)cccc2[nH]1)C(=O)Cn1c(=O)oc2ccc(Cl)cc21.Cl [Example 16]
0.47 µM	CN(Cc1nc2cc(C(F)(F)F)ccc2[nH]1)C(=O)Cn1c(=O)oc2ccc(Cl)c(F)c21 [Example 17]
0.44 µM	CN(Cc1nc2cc(Br)ccc2[nH]1)C(=O)Cn1c(=O)oc2ccc(Cl)cc21 [Example 20]
0.39 µM	CN(Cc1nc2cc(C3CC3)ccc2[nH]1)C(=O)Cn1c(=O)oc2ccc(C(F)(F)F)cc21 [Example 22]
0.45 µM	CN(Cc1nc2cc(Cl)ccc2[nH]1)C(=O)Cn1c(=O)oc2ccc(C(F)(F)F)cc21 [Example 25]
0.37 µM	CN(Cc1nc2cc(Cl)ccc2[nH]1)C(=O)Cn1c(=O)oc2ccc(OC(F)(F)F)cc21 [Example 26]
0.46 µM	CN(Cc1nc2cc(C(F)(F)F)ccc2[nH]1)C(=O)Cn1c(=O)oc2ccc(C(F)(F)F)c(F)c21 [Example 27]
0.27 µM	Cc1cc2nc(CN(C)C(=O)Cn3c(=O)oc4ccc(Cl)cc43)[nH]c2cc1Cl [Example 30]
1.1 µM	CN(Cc1nc2cc(OC(F)(F)F)ccc2[nH]1)C(=O)Cn1c(=O)oc2ccc(Cl)cc21 [Example 31]
0.99 µM	CN(Cc1nc2c(Cl)cccc2[nH]1)C(=O)Cn1c(=O)oc2ccc(Cl)cc21 [Example 34]
0.30 µM	CN(Cc1nc2cc(Cl)c(Cl)cc2n1CC(C)(C)O)C(=O)Cn1c(=O)oc2ccc(Cl)cc21 [Example 37]
0.40 µM	CN(Cc1nc2c(C(F)(F)F)cccc2[nH]1)C(=O)Cn1c(=O)oc2ccc(C(F)(F)F)cc21 [Example 39]

test system: ddY male mice; experiment: Y-maze test: improvement effect on cognitive impairment caused by MK-801 (spontaneous alternation behavior); assay type: in vivo; conditions: oral, once, one hour before test, MK-801 0.15 mg/kg i.p. 20 minutes before
Method: The improvement effect of the compound of the present invention on cognitive impairment was evaluated using a Y-maze test which is an experiment system of alternation behavior.
As a Y-maze, a maze, in which three tracks having a length of one arm of 40 cm, a height of a wall of 13 cm, a width of a bottom of 3 cm, and a width of a top of 10 cm are each joined in the Y shape at a degree of 120, was used. […]
The above-described mice were allowed to explore freely for 8 minutes after being placed at an end of one track in the Y-maze, and the track and the sequence in which the mice entered were recorded. The number of times the mice entered within the measurement time was counted, and taken as a total entry number. Among these, a combination in which the mice successively entered different three tracks (for example, when taking three arms as a, b, and c, respectively, a case where the order of the arm that entered was “abccbacab” was counted as 4, inclusive of overlapping) was considered as a spontaneous alternation behavior number. The spontaneous alternation behavior rate was calculated by the following calculation and used as an index for a spontaneous alternation behavior: Spontaneous alternation behavior rate=spontaneous alternation behavior number/(total number of entries−2)×100 […]
The measured values were expressed in average values±standard errors for each group. […]

SMILES	Data 2: effective concentration (improved the spontaneous alternation behavior)
CN(Cc1nc2cc(C(F)(F)F)ccc2[nH]1)C(=O)Cn1c(=O)oc2ccc(Cl)cc21.Cl [Example 1, 2-(5-chloro-2-oxo-1,3-benzoxazol-3 (2H)-yl)-N-methyl-N-{[5-(trifluoromethyl)-1H-benzimidazol-2-yl]methyl}acetamide hydrochloride]	0.1 mg/kg
CN(Cc1nc2cc(Br)ccc2[nH]1)C(=O)Cn1c(=O)oc2ccc(Cl)cc21 [Example 20]	1.0 mg/kg
